One substance from patent publication US20190201494A1, “COMPOSITIONS AND METHODS FOR TREATING NICOTINE WITHDRAWAL” (STC UNM, priority 2016, published 2019) can be followed below.

Format in all cases: in vivo, human
Assay [1] concerns overnight abstinent smokers. The assay is described as follows: Positive and Negative Affect Schedule (PANAS) mood ratings (Example 1). The text has this: (§1) Intranasal spray administration of insulin or placebo occurred at 12:30 PM. The purpose of the spacing time between morning check-in and nasal spray administration was stabilization of postprandial insulin levels. In a randomized fashion, the study nurse administered one spray in each nostril every three minutes for the total of six sprays of either insulin or placebo. Instructions to perform the Trier Social Stress Test were given at 13:20, and speech delivery occurred 13:30. Briefly, the Trier Social Stress Test^13 is a standardized laboratory stressor consisting of a free speech and a mental arithmetic task in front of an audience. Participants were introduced to the task and instructed to prepare a 5-minute presentation in which they were to promote their candidacy for a job. The speech was delivered after a 10-minute preparation period. Thereafter, participants were introduced to the mental arithmetic task, also standing in front of the audience and a self-projecting television screen. Subjects were required to count backwards from 2023 in steps of 17 as fast and accurately as possible for five minutes; upon making a mistake, subjects were asked to stop and start again at 2023. At every post-stress timepoint (13:40, 13:50, 14:00, 14:10, and 14:40), study nurses checked POC glucose to ensure euglycemia. After the last time point at 14:40, subjects ate a snack, had their glucose level checked, received another nares exam, and were discharged from the clinic at 16:00.
(§2) Subjective measures included the Questionnaire on Smoking Urges (QSU) Brief Form and Positive and Negative Affect Schedule (PANAS). Urges to smoke were rated using the 10-item QSU Brief Form^14 that consists of 10-questions. The answers are scored from 1 (strongly disagree) to 7 (strongly agree). These questions are the basis for the two factor derived subscales. Factor 1 subscale reflects a strong desire and intention to smoke with smoking perceived as rewarding. Factor 2 subscale reflects an anticipation of relief from negative affect with an urgent desire to smoke. Study data analysis included evaluations of both factors. The PANAS (Watson et al., 1988. J Pers Soc Psychol 54(6):1063-1070) consists of 10 negative and 10 positive mood terms rated on five-point Likert-type response scales from 1 (very slightly or not at all) to 5 (extremely). Positive and negative scale scores each range between 10 and 50. The PANAS was chosen as a composite measure of self-reported positive and negative affect. Subjective measures were taken at 08:30, 12:20, 13:00, 13:40, 13:50, 14:00, 14:10 and 14:40.
Random coefficient models were constructed for analyzing subjective (i.e., craving and mood), blood (insulin, glucose, C-peptide and nonesterified fatty acids) and cardiovascular (blood pressure) measures. For every model, an evaluation of non-linear term was performed, and, if significance was detected, that polynomial term for time was included in the model. Treatment, time and treatment by time interaction were included as fixed effects. Time nested within subjects was included as a random effect. If an interaction was detected, post hoc comparisons were performed comparing treatment groups at each time point. Cortisol was log-transformed for the purpose of normalizing distribution. The summary measure for cortisol analysis was peak change from baseline. Baseline cortisol was the 8:30 AM measurement, and time period for determination of peak was between 13:40 and 14:40. This time period reflects any cortisol change that resulted from the psychosocial stress procedure, with speech occurring from 13:30 to 13:35 and math from 13:35 to 13:40. Group differences were compared using analysis of variance (ANOVA). Significance values are reported as detected; no adjustments were made for multiple comparisons.

In assay [2] the test system is overnight abstinent smokers. Briefly: Questionnaire on Smoking Urges Brief ratings, overnight abstinence with Trier Social Stress Test (Example 1, parallel study). How it is done: Session 2 methodology and results are presented in this publication.
Subjects started their overnight abstinence at 8 PM the night before reporting to the University of New Mexico Clinical and Translational Science Center. At 8 AM the following day, abstinence from smoking was confirmed with a CO reading on a coVita piCO+ breathalyzer less than 50% of their baseline CO recorded at intake. […] Exposure to nicotine was analyzed by quantitative liquid chromatography-tandem mass spectrometry. Cutoff for nicotine was 2 ng/mL for nicotine.
Following negative urine drug and pregnancy tests, at 8:30 AM, subjects completed their morning assessment of smoking urges and mood. A salivary cortisol sample was also taken at this time. They were then provided breakfast (a slice of banana bread, one apple, and two cheese sticks), which they had to eat entirely. The rest of the morning, subjects watched and read emotionally neutral movies and literature. At 11:45 AM, a study nurse inserted the intravenous line, completed a point-of-care (POC) glucose check and nares assessment.
as §1, §2
Placebo contained normal saline (0.9% NaCl). The product was prepared in a biosafety cabinet 30 minutes before administration. Insulin or placebo was placed in a 10 mL amber glass bottle (Gerresheimer AG, Düsseldorf, Germany), which was capped with a 10 mg sterile nasal pump (Aero Pump GmbH, Hochheim, Germany). […]

Assay [3] has as its system overnight abstinent smokers. The assay is described as follows: Salivary cortisol response to Trier Social Stress Test (Example 1). The conditions noted are these: 60 IU vs placebo, F(1,35)=12.78, p≤0.001. The text has this:
Intranasal spray administration of insulin or placebo occurred at 12:30 PM. The purpose of the spacing time between morning check-in and nasal spray administration was stabilization of postprandial insulin levels. In a randomized fashion, the study nurse administered one spray in each nostril every three minutes for the total of six sprays of either insulin or placebo. Instructions to perform the Trier Social Stress Test were given at 13:20, and speech delivery occurred 13:30. Briefly, the Trier Social Stress Test^13 is a standardized laboratory stressor consisting of a free speech and a mental arithmetic task in front of an audience. Participants were introduced to the task and instructed to prepare a 5-minute presentation in which they were to promote their candidacy for a job. […]
Salivary measures: Saliva samples were collected using a saliva collection kit (Salimetrics, LLC, Carlsbad, Calif.). Saliva samples were collected at 08:30, 12:20, 13:00, 13:40, 13:50, 14:00, 14:10, and 14:40, and analyzed for cortisol as follows: A microtitre plate was coated with monoclonal antibodies to cortisol using salivary cortisol ELISA kit (Salimetrics, LLC, Carlsbad, Calif.). […] Bound cortisol peroxidase was measured by the reaction of the peroxidase enzyme on the substrate tetramethylbenzidine (TMB). […] Optical density was read on a standard plate at 450 nm. […]

“Also recorded” adds a separate entry of the source. A value given as a limit tells only on which side of the number the result lay.

“intranasal insulin: bulk human Regular insulin (U100 Novolin R, Novo Nordisk US), 100 IU/ml, six nasal sprays delivering 60 IU”: the “Negative mood ratings (PANAS), effect of treatment” value is listed as “the effect of treatment was not significant” in assay [1] (60 IU vs placebo) and “no effect” in assay [1] (60 IU vs placebo, listed as Intranasal insulin). Besides, the “Positive mood ratings (PANAS), effect of treatment” value in assay [1] (60 IU vs placebo) is reported as “no effect”. In assay [1] (SE(b)=0.01, z=0.10, p=0.92, not significant), the “Negative mood (PANAS), treatment×time interaction, b” value is listed as 0.001. Further, the “Positive mood (PANAS), treatment×time interaction, b” value in assay [1] (SE(b)=0.017, z=−0.97, p=0.33, not significant) is reported as −0.01. The “Negative mood (PANAS), effect of treatment, b” value in assay [1] (SE(b)=1.30, z=1.07, p=0.28, not significant) amounted to 1.38. For the same substance, the “Positive mood (PANAS), treatment, b” value in assay [1] (SE(b)=2.47, z=−0.19, p=0.84, not significant) is recorded as −0.47. In addition, the “Smoking urges / nicotine cravings (Questionnaire on Smoking Urges Brief) compared to placebo” value in assay [2] (60 IU intranasal, overnight abstinence, through Trier Social Stress Test, p≤0.05) is recorded as “decreased significantly; also recorded: significant reduction of nicotine cravings”. The “Smoking urges, treatment×time interaction, b” value in assay [2] (60 IU vs placebo, SE(b)=0.032, z=1.93, p≤0.05) amounted to 0.064. Besides, in assay [2] (60 IU vs placebo, SE(b)=4.81, z=1.39, p=0.16, not significant), the “Smoking urges, main effect of treatment, b” value was 6.66. Besides, the “QSU-Brief Factor 2 (anticipation of relief from negative affect) compared to placebo” value in assay [2] (60 IU, overnight abstinence, interaction non-significant) is recorded as “no effect; also recorded: not Factor 2 scale”. In addition, the “QSU-Brief Factor 1 (strong desire and intention to smoke) compared to placebo” value is on record as “overall decrease in smoking urges was driven by intranasal insulin's effect on Factor 1” in assay [2] (60 IU, overnight abstinence, p≤0.05) and “significantly decreased” in assay [2] (60 IU, overnight abstinence, p≤0.05, listed as Intranasal insulin). Further, the “Duration of effect on QSU-Brief Factor 1” value in assay [2] (60 IU, detected immediately following treatment administration) is ≥ 100 min. For the same substance, in assay [2] (SE(b)=0.01, z=1.48, p=0.14), the “QSU-Brief Factor 2, treatment×time interaction, b” value is recorded as 0.02. Moreover, the “QSU-Brief Factor 1, treatment×time interaction, b” value in assay [2] (SE(b)=0.018, z=2.15, p≤0.05) stood at 0.039. In addition, the “QSU-Brief Factor 2, main effect of treatment, b” value in assay [2] (SE(b)=2.37, z=1.58, p=0.11) worked out at 3.76. The “QSU-Brief Factor 1, main effect of treatment, b” value in assay [2] (SE(b)=2.61, z=1.36, p=0.17) is given as 3.55. Moreover, the “Peak salivary cortisol levels following stress procedure (peak change from baseline, log-transformed)” value was “increased (i.e., restored) the blunted cortisol response to stress; also recorded: restores blunted cortisol response to stress” in assay [3] and “significantly increased” in assay [3] (listed as Intranasal insulin).
